In ChEMBL document CHEMBL1201862, “PubChem BioAssay data set” (2004):
The source made the active and inactive calls.

What was measured:
[1] = microbe, parasite or virus in culture; type: functional; conditions: Mycobacterium tuberculosis
[2] = THP-1 cell cytotoxicity, dose response, cytotoxicity control for non-replicating M. tuberculosis project (AID 489025); type: functional
cells = type: functional
[3] = target: T1, DNA repair and recombination protein RAD54-like (Homo sapiens, UniProt Q92698); test: inhibitors of human RAD54 branch migration, confirmation, biochemical, fluorescence, cherry-picked samples, dose series (AID 651657); type: functional
T1 sequence (Q92698 whole entry): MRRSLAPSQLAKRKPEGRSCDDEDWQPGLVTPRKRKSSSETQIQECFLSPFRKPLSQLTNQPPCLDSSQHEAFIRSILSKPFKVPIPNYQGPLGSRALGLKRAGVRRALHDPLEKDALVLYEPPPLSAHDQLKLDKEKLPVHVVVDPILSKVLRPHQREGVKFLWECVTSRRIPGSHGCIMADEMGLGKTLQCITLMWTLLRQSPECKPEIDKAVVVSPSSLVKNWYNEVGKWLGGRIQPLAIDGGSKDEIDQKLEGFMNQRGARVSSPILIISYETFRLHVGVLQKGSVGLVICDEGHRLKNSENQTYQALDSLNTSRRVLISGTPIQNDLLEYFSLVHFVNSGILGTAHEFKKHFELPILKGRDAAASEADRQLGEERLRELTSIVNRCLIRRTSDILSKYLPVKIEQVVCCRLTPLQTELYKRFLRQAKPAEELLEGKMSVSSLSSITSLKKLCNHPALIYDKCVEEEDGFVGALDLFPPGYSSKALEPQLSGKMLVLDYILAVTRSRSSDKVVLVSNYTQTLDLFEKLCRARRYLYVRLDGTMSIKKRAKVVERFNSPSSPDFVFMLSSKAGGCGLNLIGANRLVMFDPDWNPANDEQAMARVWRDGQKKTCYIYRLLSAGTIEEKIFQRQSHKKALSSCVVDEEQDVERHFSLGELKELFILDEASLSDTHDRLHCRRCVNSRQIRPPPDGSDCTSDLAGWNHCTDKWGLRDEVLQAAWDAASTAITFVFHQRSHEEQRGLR

Aminopeptidase N = target: T2, Aminopeptidase N (Plasmodium falciparum FcB1/Columbia, UniProt O96935); test: P. falciparum M1AAP inhibitors, biochemical, fluorogenic H-Leu-NHMec substrate, 1536-well (AID 1445); parameters: species or system Plasmodium falciparum 3D7, 3D7
T2 sequence (O96935 whole entry): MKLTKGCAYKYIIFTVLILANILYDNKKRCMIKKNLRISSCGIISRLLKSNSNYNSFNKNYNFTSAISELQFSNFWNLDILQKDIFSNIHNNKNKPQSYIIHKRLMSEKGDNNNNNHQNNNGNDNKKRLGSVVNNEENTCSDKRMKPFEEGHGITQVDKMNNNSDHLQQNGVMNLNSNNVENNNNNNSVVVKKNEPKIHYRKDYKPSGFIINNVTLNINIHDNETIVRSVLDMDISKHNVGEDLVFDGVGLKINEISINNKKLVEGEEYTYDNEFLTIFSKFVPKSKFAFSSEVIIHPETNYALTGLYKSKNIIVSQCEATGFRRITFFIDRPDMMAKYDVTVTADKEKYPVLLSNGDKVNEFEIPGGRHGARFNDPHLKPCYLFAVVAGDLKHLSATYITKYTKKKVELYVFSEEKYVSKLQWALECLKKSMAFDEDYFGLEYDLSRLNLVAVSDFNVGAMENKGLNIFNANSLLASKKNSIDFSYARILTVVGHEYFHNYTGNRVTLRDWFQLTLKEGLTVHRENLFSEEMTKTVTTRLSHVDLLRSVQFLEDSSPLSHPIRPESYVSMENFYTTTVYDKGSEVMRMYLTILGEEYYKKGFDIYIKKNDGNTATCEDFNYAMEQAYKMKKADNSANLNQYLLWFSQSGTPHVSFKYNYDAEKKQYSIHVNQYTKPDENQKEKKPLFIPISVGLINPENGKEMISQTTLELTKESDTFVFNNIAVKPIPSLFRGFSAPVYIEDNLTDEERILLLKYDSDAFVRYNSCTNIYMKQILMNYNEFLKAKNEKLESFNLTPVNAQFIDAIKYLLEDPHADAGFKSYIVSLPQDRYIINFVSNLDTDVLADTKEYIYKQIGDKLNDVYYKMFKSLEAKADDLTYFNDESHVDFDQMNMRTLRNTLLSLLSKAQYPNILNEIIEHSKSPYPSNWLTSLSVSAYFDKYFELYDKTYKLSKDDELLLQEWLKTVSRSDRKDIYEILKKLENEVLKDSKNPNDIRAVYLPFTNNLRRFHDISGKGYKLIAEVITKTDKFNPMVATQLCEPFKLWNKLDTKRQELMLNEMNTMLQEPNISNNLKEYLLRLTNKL

Leucine aminopeptidase = target: T3, Leucine aminopeptidase (Plasmodium falciparum 3D7, UniProt Q8IL11); test: P. falciparum M17LAP inhibitors, primary screen, biochemical, fluorogenic H-Leu-NHMec substrate, 1536-well (AID 1619); type: functional
T3 sequence (Q8IL11 whole entry): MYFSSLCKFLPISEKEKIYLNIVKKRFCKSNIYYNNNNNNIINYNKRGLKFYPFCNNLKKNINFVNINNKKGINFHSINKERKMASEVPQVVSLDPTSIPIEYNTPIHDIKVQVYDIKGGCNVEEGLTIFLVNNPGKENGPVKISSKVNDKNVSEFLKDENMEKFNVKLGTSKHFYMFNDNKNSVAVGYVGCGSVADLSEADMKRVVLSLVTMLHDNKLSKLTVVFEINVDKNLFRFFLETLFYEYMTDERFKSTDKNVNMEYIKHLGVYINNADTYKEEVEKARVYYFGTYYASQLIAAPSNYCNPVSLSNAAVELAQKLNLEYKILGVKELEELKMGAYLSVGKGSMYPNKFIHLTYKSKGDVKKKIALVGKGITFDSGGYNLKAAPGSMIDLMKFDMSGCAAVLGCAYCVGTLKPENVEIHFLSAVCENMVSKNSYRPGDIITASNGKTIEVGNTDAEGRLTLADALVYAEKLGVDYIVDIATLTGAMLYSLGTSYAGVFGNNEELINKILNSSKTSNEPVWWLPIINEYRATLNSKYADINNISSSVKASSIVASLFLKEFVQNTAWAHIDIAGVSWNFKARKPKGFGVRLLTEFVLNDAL

[4] = target: Induced myeloid leukemia cell differentiation protein Mcl-1 (Homo sapiens, UniProt Q07820); type: functional
[5] = target: Luciferin 4-monooxygenase (Photinus pyralis, UniProt P08659); test: firefly luciferase enzyme inhibitors, dose response, biochemical, luminescence (AID 1891)
[6] = Luminescence Cell-Based Dose Confirmation HTS to Identify Inhibitors of Platelet Dense Granule Release. [Related pubchem assays: 1663 (Primary HTS), 1678 (Summary of Project)]; type: functional
[7] = target: DNA dC->dU-editing enzyme APOBEC-3A (Homo sapiens, UniProt P31941); test: Dose Response confirmation of small molecule APOBEC3A DNA Deaminase Inhibitors via a fluorescence-based single-stranded DNA deaminase assay. [Related pubchem assays (depositor defined):AID493011, AID493024]; type: functional
[8] = target: DNA dC->dU-editing enzyme APOBEC-3G (Homo sapiens, UniProt Q9HC16); type: functional;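 note: Dose-response counterscreen measuring inhibition of APOBEC3G DNA deaminase activity, run while confirming APOBEC3A inhibitors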
[9] = target: T4, Ubiquitin-conjugating enzyme E2 N (Homo sapiens, UniProt P61088); type: functional;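 note: Dose-response confirmation in a TR-FRET assay detecting UBC13-driven polyubiquitin chain formation, inhibition measured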
T4 sequence (P61088 whole entry): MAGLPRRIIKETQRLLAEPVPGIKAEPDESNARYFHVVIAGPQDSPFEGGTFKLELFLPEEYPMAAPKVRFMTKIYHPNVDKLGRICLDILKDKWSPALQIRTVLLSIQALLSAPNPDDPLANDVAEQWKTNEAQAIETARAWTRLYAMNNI

BJ [10] = test: cytotoxicity toward BJ-TERT fibroblasts, dose response, cell-based, RAS-independent, luminescence (AID 1933); type: functional; conditions: Homo sapiens
BJ [11] = test: cells; type: functional, cell-based; conditions: Homo sapiens
BJ [12] = test: cytotoxicity toward BJ-TERT-LT-ST fibroblasts, dose response, cell-based, RAS-independent, luminescence (AID 1935); type: functional; conditions: Homo sapiens;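 note: BJ fibroblasts immortalized with TERT plus LT and ST oncogenes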
[13] = cytotoxicity toward DRD oncogenic fibroblasts, dose response, cell-based, non-viral oncogenic, luminescence (AID 1934); type: functional; conditions: Homo sapiens
[14] = target: Voltage-dependent T-type calcium channel subunit alpha-1H (Homo sapiens, UniProt O95180); type: functional;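 note: channel activity triggered by adding a high calcium stimulation buffer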
[15] = cytotoxicity in HEK-293T cells, dose response, cytotoxicity control for TCR NF-kB inhibitor project, luminescence, T-cell screen hits (AID 489026); type: functional, cell-based;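 note: cells exposed to compound about 14 hours before the viability readout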
INS1 = test: beta cell apoptosis inhibitors, cytokine rescue, dose response, luminescence, retest (AID 449756); type: functional, cell-based; conditions: Rattus norvegicus;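 note: cell death triggered by IL-1 beta plus TNF-alpha plus IFN-gamma mixture; protective hits raise ATP signal compared with cytokine alone wells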
[16] = target: T5, RNA-binding protein pos-1 (Caenorhabditis elegans, UniProt G5EF15); test: inhibitors of POS-1/mex-3 RNA binding, dose response, biochemical, fluorescence polarization (AID 1964);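 note: purified POS-1 fused to maltose binding protein made in E. coli; potency of compounds blocking POS-1 binding to fluorescent RNA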
T5 sequence (G5EF15 whole entry): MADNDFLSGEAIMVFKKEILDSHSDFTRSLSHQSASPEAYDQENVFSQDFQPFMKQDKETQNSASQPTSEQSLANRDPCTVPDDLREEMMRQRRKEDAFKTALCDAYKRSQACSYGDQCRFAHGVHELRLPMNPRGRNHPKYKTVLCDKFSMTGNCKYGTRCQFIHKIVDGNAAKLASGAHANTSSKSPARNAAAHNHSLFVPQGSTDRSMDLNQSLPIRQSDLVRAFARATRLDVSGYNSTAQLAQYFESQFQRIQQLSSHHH

[17] = target: T6, Zinc finger protein mex-5 (Caenorhabditis elegans, UniProt Q9XUB2); test: MEX-5/TCR-2 RNA interaction inhibitors, dose response, biochemical, C. elegans, fluorescence polarization (AID 1960)
T6 sequence (Q9XUB2 whole entry): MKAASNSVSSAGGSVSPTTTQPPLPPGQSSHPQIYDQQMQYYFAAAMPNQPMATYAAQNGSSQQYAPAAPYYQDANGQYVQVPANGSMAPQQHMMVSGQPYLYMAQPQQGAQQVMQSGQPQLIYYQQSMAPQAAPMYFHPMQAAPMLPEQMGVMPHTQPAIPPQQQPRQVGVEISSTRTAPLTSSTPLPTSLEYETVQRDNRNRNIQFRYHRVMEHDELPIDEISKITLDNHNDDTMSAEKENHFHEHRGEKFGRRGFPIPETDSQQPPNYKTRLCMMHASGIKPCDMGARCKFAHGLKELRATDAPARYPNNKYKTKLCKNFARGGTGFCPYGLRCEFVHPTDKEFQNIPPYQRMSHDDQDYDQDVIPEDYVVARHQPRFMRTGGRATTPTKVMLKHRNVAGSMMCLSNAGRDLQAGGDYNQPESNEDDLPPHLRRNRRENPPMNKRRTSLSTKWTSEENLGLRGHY

Chain of Voltage-dependent T-type calcium channel subunit alpha-1H (O95180 whole entry): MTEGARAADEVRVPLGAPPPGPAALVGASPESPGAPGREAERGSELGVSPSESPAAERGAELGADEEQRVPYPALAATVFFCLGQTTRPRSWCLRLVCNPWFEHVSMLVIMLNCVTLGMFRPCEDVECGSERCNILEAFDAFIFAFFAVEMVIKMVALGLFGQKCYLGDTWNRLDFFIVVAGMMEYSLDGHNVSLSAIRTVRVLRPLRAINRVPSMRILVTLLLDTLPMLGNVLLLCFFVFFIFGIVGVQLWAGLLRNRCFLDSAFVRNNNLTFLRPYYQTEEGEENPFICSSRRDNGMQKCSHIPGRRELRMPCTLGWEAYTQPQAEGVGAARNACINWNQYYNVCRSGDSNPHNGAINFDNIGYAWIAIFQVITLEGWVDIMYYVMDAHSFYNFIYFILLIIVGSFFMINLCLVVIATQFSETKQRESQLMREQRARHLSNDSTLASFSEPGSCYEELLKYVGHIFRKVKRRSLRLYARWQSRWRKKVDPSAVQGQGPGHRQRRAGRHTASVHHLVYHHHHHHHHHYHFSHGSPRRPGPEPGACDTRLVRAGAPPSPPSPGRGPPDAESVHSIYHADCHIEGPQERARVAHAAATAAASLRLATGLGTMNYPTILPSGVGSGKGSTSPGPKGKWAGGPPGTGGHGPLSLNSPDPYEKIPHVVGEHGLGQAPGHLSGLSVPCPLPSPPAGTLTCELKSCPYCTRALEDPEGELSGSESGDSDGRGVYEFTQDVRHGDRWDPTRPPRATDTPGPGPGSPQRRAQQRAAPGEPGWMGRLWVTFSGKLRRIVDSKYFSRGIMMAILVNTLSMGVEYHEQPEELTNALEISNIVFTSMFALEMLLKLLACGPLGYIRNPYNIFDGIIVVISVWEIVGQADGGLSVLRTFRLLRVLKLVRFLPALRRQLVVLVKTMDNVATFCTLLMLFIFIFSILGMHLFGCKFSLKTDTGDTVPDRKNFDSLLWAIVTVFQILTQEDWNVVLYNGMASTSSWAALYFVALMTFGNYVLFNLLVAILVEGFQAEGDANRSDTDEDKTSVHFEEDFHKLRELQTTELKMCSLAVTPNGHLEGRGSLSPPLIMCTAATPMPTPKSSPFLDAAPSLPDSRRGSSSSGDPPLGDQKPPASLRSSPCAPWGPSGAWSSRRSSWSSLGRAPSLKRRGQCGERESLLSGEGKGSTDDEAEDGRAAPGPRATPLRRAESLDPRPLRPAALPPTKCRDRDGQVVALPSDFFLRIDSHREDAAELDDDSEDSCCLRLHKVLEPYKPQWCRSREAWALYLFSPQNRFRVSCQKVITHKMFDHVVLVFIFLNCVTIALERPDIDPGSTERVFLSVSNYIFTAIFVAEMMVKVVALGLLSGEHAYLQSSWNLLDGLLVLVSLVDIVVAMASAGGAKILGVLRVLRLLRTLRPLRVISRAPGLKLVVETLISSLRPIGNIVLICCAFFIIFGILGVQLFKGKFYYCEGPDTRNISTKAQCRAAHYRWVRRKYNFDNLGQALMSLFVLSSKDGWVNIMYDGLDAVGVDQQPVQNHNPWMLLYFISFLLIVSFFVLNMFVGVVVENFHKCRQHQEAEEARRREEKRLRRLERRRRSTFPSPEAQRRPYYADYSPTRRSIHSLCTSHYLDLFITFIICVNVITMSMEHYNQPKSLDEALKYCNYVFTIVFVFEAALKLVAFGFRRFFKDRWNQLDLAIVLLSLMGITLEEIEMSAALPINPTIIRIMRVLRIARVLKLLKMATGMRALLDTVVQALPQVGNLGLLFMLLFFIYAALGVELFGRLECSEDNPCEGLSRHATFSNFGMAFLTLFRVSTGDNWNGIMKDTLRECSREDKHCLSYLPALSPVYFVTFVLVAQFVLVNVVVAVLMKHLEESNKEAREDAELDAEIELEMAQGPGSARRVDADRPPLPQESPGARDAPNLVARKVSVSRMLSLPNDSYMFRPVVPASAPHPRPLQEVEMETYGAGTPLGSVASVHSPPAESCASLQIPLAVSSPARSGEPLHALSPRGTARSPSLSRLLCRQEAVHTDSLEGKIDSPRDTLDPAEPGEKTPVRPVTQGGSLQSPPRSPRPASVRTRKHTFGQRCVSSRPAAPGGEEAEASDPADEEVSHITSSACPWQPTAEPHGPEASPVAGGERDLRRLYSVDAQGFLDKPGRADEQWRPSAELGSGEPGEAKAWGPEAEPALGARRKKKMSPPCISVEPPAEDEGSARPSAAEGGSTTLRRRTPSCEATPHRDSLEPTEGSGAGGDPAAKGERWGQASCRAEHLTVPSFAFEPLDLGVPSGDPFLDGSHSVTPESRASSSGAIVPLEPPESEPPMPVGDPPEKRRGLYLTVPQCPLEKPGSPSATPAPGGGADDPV
Chain of Luciferin 4-monooxygenase (P08659 whole entry): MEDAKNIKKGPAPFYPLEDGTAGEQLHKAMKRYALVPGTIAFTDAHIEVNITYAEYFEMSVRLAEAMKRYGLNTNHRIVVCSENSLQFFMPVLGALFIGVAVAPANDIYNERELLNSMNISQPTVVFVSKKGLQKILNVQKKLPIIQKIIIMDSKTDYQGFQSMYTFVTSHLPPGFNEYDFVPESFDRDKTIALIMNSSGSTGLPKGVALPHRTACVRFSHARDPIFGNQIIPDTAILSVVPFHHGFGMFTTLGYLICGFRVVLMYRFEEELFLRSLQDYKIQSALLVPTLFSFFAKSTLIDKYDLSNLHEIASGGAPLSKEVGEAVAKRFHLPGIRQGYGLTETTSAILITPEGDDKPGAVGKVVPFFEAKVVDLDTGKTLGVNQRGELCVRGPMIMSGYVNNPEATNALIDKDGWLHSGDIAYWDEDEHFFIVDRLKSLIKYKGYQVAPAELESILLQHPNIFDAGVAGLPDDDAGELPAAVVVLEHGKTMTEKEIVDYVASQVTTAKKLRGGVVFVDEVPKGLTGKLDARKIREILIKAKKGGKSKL
Chain of DNA dC->dU-editing enzyme APOBEC-3A (P31941 whole entry): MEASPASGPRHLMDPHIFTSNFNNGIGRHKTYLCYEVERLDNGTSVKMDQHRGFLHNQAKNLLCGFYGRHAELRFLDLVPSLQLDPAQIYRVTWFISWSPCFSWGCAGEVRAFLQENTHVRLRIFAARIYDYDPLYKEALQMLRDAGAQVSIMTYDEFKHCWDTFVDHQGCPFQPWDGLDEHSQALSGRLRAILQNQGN
Chain of DNA dC->dU-editing enzyme APOBEC-3G (Q9HC16 whole entry): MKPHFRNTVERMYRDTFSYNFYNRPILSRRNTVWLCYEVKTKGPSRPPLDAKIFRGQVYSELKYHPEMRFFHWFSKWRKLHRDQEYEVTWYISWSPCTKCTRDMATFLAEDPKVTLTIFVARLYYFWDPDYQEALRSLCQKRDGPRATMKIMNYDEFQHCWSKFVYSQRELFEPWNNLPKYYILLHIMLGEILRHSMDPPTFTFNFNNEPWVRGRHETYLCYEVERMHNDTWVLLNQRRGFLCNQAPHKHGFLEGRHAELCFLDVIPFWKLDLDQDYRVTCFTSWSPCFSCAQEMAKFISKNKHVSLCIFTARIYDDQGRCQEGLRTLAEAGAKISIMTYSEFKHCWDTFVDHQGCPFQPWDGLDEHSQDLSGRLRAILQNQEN
Chain of Induced myeloid leukemia cell differentiation protein Mcl-1 (Q07820 whole entry): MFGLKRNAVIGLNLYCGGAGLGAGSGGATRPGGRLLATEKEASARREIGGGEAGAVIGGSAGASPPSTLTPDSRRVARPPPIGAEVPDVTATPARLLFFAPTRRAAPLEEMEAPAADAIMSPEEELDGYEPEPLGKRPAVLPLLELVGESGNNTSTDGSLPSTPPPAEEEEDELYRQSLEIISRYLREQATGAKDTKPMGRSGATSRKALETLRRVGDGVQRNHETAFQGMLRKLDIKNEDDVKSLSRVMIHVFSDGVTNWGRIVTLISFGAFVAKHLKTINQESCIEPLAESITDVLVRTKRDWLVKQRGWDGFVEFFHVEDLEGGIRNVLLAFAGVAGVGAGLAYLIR

## CN1C(=O)/C(=C/c2cccc(Cl)c2)Sc2ccc(C(=O)N3CCCC3)cc21
[1]
  CC50: 25.5 µM (active)
[2]
  CC50: 9.59 µM (active)
cells
  IC50: 34.4 µM (active)

## CCn1cc(C(=O)NCCN(C)C)c(=O)c2cc(F)c(N3CCN(C)CC3)cc21
[3]
  AC50: 21.1 µM (active)

## CC(c1nc2ccccc2o1)N1C(=O)c2ccccc2C1=O (stereo unspecified)
Aminopeptidase N
  IC50: 79.5 µM (active)

## CCCCNC(=S)Nc1ccc2cn[nH]c2c1
Leucine aminopeptidase
  IC50: 75.6 µM (active)

## Cc1ccc2[nH]c(C)c(/C=C3/C(=N)N4C(=NC3=O)SN=C4S(=O)(=O)C(C)C)c2c1
Leucine aminopeptidase
  IC50: 7.16 µM (active)
Aminopeptidase N
  IC50: 9.85 µM (active)
[4]
  IC50: 11.8 µM (not active)

## O=C(Nn1c(C2CCC2)nc2ccccc2c1=O)C1CCC1
Aminopeptidase N
  IC50: 48.2 µM (active)

## COC(=O)c1[nH]c2ccc(Cl)cc2c1NC(=O)CN1CCc2cc(OC)c(OC)cc2C1
[5]
  EC50: > 112 µM (not active)
[6]
  EC50: > 112 µM (not active)
[7]
  IC50: 3.18 µM (active)
[8]
  IC50: 7.77 µM (active)

## CCn1c(=O)c2cc(C(=O)NCCN(C)C)sc2c2ccccc21
[9]
  IC50: > 20 µM (inactive)
[3]
  AC50: 30.7 µM (active)

## O=C(CCl)Nc1ccccc1C(=O)NCc1ccccc1
BJ [10]
  EC50: > 150 µM (not active)
BJ [11]
  EC50: > 150 µM (not active)
BJ [12]
  EC50: > 150 µM (not active)
[13]
  EC50: > 150 µM (inconclusive)

## COc1cccc(CNC(=O)C2CCN(Cc3cnn(-c4ccccc4)c3-n3cccc3)CC2)c1
[14]
  EC50: 9.81 µM (active)

## Cc1ccc(CC(=O)N2CCN(c3ccc([N+](=O)[O-])cc3)CC2)cc1
[2]
  CC50: > 40 µM (active)

## O=C(Nc1ccccc1)Nc1ccc(C(=O)N2CCCC2)cc1
BJ [10]
  EC50: 9.11 µM (active)
BJ [11]
  EC50: 9.01 µM (active)
[5]
  EC50: 0.571 µM (active)
[6]
  EC50: 3.93 µM (active)
BJ [12]
  EC50: > 150 µM (inconclusive)
[13]
  EC50: 7.86 µM (active)

## Cc1cccc(C2=NCC(=O)N(CC(=O)NCc3ccco3)c3sc4c(c32)CCCC4)c1
[14]
  EC50: 4.37 µM (active)

## CCOc1ccc2[nH]c3c(NCCN(C)C)ncnc3c2c1
[3]
  AC50: 55.6 µM (active)

## CC(C)N1CCc2c(sc(NC(=O)c3ccc(C(=O)c4ccccc4)cc3)c2C(N)=O)C1
[3]
  AC50: 68.7 µM (active)

## CCN(c1ccccc1)S(=O)(=O)c1ccc(C(=O)NC2CCN(Cc3ccccc3)CC2)cc1
[15]
  IC50: > 80 µM (inactive)
INS1
  AC50: 2.31 µM (active)

## Nc1cc(N)nc(SCC(=O)Nc2ccc(Br)cc2Cl)n1
[7]
  IC50: 4.42 µM (active)
[8]
  IC50: 6.06 µM (active)

## CC(C)=NN=C(N)NC(=S)Nc1ccc(C)cc1
Leucine aminopeptidase
  IC50: 59.3 µM (active)

## CCOC(=O)c1cc(=O)n2nc(-c3ccccc3F)nc2s1
Leucine aminopeptidase
  IC50: 31.2 µM (active)
[16]
  EC50: > 300 µM (not active)
[17]
  EC50: > 300 µM (not active)

## CCn1nc(C(=O)Nc2cccc3ccccc23)c(Cl)c1Cl
[14]
  EC50: 10.5 µM (active)

## CC/N=c1\sc2ccccc2n1CC(O)COc1ccccc1 (stereo unspecified)
[14]
  EC50: 29.1 µM (active)
